Source: ChEMBL document CHEMBL1146539, “Homopseudopteroxazole, a new antimycobacterial diterpene alkaloid from Pseudopterogorgia elisabethae” (2003)
Converted amounts (≈) assume the structure as drawn.

System: Mycobacterium tuberculosis
Assay: Antimycobacterial activity against Mycobacterium tuberculosis H37Rv
Format: functional
Conditions: for MIC: Mycobacterium tuberculosis, H37Rv

## CC(C)=CCC[C@H](C)[C@H]1CC[C@H](C)c2c1cc(C)c1ncoc21
  inhibition (INH): 66%
  MIC: 12.5 µg/mL (≈ 40.1 µM)

## CCCCCc1nc2c(C)c3c4c(c2o1)[C@@H](C)CC[C@@H]4[C@@H](C)C[C@H]3C=C(C)C [HOMOPSEUDOPTEROXAZOLE]
  inhibition (INH): 80%
  MIC: 12.5 µg/mL (≈ 32.9 µM)

## CC(C)=C[C@@H]1C[C@H](C)[C@H]2CC[C@H](C)c3c2c1c(C)c1ncoc31 [PSEUDOPTEROXAZOLE]
  inhibition (INH): 97%
  MIC: 12.5 µg/mL (≈ 40.4 µM)
